Reference: publication PMC3922309, “Differential roles of tryptophan residues in conformational stability of Porphyromonas gingivalis HmuY hemophore” (BMC Biochemistry, 2014)

How the values were obtained:
HmuY [1] = target: HmuY (Porphyromonas gingivalis, UniProt A2BCY8, W51Y); experiment: biochemical
HmuY [2] = target: HmuY (Porphyromonas gingivalis, UniProt A2BCY8, W73Y); experiment: biochemical
HmuY [3] = target: HmuY (Porphyromonas gingivalis, UniProt A2BCY8, W161Y); experiment: biochemical
HmuY [4] = target: HmuY (Porphyromonas gingivalis, UniProt A2BCY8, W51A); experiment: biochemical
HmuY [5] = target: T1, HmuY (Porphyromonas gingivalis, UniProt A2BCY8); experiment: heme titration of apoprotein (UV-visible / Trp fluorescence quenching), one-site model; assay type: binding
T1 construct: polypeptide lacking the first 25 residues, plasmid pHmuY11, expressed in Escherichia coli ER2566, purified from soluble lysate

HmuY [6] = target: HmuY (Porphyromonas gingivalis, UniProt A2BCY8, W161A); experiment: biochemical
HmuY [7] = target: HmuY (Porphyromonas gingivalis, UniProt A2BCY8, W73A); experiment: biochemical
Sequence of HmuY (Porphyromonas gingivalis, UniProt A2BCY8, W73A) (A2BCY8 26-216 W73A): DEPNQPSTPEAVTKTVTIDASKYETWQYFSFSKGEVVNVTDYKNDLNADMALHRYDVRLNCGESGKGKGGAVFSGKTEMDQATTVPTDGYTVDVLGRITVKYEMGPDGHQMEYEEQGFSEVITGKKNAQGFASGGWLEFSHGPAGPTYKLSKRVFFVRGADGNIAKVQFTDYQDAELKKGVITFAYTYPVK

Sequence of HmuY (Porphyromonas gingivalis, UniProt A2BCY8, W161A) (A2BCY8 26-216 W161A): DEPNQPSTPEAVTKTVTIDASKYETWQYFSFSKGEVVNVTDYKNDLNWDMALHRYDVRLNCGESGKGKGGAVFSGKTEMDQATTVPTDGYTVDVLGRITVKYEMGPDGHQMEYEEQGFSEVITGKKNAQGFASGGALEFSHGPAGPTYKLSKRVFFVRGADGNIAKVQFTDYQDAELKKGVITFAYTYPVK
Sequence of HmuY (Porphyromonas gingivalis, UniProt A2BCY8, W73Y) (A2BCY8 26-216 W73Y): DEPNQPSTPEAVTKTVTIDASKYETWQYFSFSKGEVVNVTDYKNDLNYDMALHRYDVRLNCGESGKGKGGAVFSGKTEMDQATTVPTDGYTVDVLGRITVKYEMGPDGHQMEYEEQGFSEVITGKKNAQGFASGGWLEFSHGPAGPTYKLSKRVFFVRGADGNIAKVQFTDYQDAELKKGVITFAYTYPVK
Sequence of HmuY (Porphyromonas gingivalis, UniProt A2BCY8, W51A) (A2BCY8 26-216 W51A): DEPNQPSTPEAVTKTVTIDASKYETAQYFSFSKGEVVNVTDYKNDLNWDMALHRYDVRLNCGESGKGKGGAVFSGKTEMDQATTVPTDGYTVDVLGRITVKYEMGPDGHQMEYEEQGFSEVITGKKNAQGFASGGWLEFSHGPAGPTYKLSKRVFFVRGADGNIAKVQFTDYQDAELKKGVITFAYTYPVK
Sequence of HmuY (Porphyromonas gingivalis, UniProt A2BCY8, W161Y) (A2BCY8 26-216 W161Y): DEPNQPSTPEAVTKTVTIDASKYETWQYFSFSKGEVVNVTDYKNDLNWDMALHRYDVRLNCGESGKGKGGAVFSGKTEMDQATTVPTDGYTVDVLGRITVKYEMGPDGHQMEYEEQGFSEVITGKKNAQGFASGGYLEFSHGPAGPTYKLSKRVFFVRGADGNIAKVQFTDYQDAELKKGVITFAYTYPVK
T1 sequence (A2BCY8 entry or part of it): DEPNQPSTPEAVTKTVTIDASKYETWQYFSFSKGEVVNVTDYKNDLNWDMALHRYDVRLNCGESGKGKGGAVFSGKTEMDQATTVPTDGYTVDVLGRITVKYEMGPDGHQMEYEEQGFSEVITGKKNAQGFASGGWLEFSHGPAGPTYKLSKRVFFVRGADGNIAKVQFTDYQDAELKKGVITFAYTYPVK
Sequence of HmuY (Porphyromonas gingivalis, UniProt A2BCY8, W51Y) (A2BCY8 26-216 W51Y): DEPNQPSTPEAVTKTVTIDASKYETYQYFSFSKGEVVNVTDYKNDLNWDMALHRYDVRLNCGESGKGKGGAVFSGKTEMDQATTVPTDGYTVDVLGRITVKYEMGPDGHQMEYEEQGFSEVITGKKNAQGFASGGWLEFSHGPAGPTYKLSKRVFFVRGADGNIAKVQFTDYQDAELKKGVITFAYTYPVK

Q: Which Kd (HmuY [1]) does the source give for `C=CC1=C(C)C2=Cc3c(C=C)c(C)c4[n]3[Fe]([Cl])[n]3c(c(C)c(CCC(=O)O)c3=CC3=NC(=C4)C(C)=C3CCC(=O)O)=CC1=N2` [heme] here?
A: 216 ± 7 nM

Q: What about the Kd (HmuY [2]) of the same compound?
A: 238 ± 12 nM

Q: And the Kd (HmuY [3])?
A: 235 ± 11 nM

Q: What about the Kd (HmuY [4]) of the same compound?
A: 303 ± 13 nM

Q: And the Kd (HmuY [5])?
A: 296 ± 12 nM

Q: What about the Kd (HmuY [6]) of the same compound?
A: 323 ± 16 nM

Q: What about the Kd (HmuY [7]) of the same compound?
A: 229 ± 8 nM
